“And” between values parts separate entries of the source, which are not always exact repeats. Equal entries are not always repeated. Where two headings read alike, the source gives them in different places. Ends that are not written are not given here.
Tests used:
hIDE WT = biological target: T1, hIDE WT (Homo sapiens, UniProt P14735); experiment: Small molecule-enzyme mutant complementation study, wild type; assay type: biochemical
T1 construct: The reported N-His6-tagged human IDE42-1019 construct; made in house; host or cells: E. coli Rosetta 2 (DE3) pLysS
T1 sequence (P14735 42-1019): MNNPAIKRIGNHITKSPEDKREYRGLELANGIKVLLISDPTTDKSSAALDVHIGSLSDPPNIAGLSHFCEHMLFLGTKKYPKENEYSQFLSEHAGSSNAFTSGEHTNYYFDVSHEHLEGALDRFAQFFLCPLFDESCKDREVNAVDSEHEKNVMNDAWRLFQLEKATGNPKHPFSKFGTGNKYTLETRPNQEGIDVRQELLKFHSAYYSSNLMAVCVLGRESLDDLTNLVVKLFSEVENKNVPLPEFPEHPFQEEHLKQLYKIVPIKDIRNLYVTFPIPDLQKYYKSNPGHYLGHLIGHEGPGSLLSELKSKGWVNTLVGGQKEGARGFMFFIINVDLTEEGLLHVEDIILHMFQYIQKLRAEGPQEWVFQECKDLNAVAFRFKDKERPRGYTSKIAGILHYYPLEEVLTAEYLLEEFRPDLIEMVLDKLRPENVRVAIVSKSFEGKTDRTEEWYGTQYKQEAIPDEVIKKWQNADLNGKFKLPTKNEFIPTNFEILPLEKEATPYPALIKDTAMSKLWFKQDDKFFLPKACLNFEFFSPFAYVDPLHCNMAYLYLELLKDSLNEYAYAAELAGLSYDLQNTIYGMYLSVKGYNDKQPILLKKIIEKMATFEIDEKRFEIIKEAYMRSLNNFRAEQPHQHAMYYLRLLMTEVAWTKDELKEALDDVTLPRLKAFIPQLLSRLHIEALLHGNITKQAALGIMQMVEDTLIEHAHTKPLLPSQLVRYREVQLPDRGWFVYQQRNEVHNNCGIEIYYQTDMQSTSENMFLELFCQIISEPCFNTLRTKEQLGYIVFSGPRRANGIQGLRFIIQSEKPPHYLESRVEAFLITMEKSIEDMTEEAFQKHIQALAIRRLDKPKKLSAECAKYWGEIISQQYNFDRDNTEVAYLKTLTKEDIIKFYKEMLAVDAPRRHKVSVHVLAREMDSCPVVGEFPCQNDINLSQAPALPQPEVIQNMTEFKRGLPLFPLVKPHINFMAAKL
Description: (§1) Protease assays with fluorogenic peptide substrates. […] All assay data points were obtained in duplicate.
(§2) Site-directed mutagenesis, expression, and purification of human IDE. The reported N-His6-tagged human IDE42-1019 construct was introduced in the expression plasmid pTrcHis-A (Invitrogen) using primers for uracil-specific excision reactions (USER) by Taq (NEB) and Pfu polymerases (PfuTurbo CX®, Agilent). The IDE gene was amplified with the primers 5′-[…]-dU-[…] and 5′-[…] G-dU-[…] (underlined sequences represent overhangs, and italics highlight the PCR priming sequence). Similarly, the pTrcHis-A vector was amplified for USER cloning with the primers 5′-[…] TGA-dU-[…] CCC and 5′-[…]-dU-[…]. Mutant IDE constructs were generated by amplifying the full vector construct with USER cloning primers introducing a mutant overhang (Table 5).
(§3) All PCR products were purified on microcentrifuge membrane columns (MinElute®, Qiagen) and quantified by UV absorbance (NanoDrop). Each fragment (0.2 pmol) was combined in a 10 μL reaction mixture containing 20 units DpnI (NEB), 0.75 units of USER mix (Endonuclease VIII and Uracil-DNA Glycosylase, NEB), 20 mM Tris-acetate, 50 mM potassium acetate, 10 mM magnesium acetate, 1 mM dithiothreitol at pH 7.9 (1× NEBuffer 4). The reactions were incubated at 37° C. for 45 min, followed by heating to 80° C. and slow cooling to 30° C. (0.2° C./s). The hybridized constructs were directly used for heat-shock transformation of chemically competent NEB turbo E. coli cells according to the manufacturer's instructions. Transformants were selected on carbenicillin LB agar, and isolated colonies were cultured overnight in 2 mL LB.
(§4) The plasmid was extracted using a microcentrifuge membrane column kit (Miniprep®, Qiagen), and the sequence of genes and vector junctions were confirmed by Sanger sequencing (Table 6). The plasmid constructs were transformed by heat-shock into chemically-competent expression strain Rosetta 2 (DE3) pLysS E. coli cells (EMD Millipore), and selected on carbenicillin/chloramphenicol LB agar. Cells transformed with IDE pTrcHis A constructs were cultured overnight at 37° C. in 2 XYT media (31 g in 1 L) containing 100 μg/mL ampicillin and 34 μg/mL chloramphenicol. Expression of His6-tagged IDE proteins was induced when the culture measured OD600 ˜0.6 by addition of isopropyl-β-D-1-thiogalactopyranoside (IPTG) to 1 mM final concentration, incubated overnight at 37° C., followed by centrifugation at 10,000 g for 30 min at 4° C.
(§5) Recombinant His6-tagged proteins were purified by Ni(II)-affinity chromatography (IMAC sepharose beads, GE Healthcare®) according to the manufacturer's instructions. The cell pellets were resuspended in pH 8.0 buffer containing 50 mM phosphate, 300 mM NaCl, 10 mM imidazole, 1% Triton X-100 and 1 mM tris(2-carboxyethyl)phosphine hydrochloride (TCEP), and were lysed by probe sonication for 4 min at 4° C., followed by clearing of cell debris by centrifugation at 10,000 g for 25 min at 4° C. The supernatant was incubated with Ni(II)-doped IMAC resin (2 mL) for 3 h at 4° C. The resin was washed twice with the cell resuspension/lysis buffer, and three times with pH 8.0 buffer containing 50 mM phosphate, 300 mM NaCl,50 mM imidazole and 1 mM TCEP. Elution was performed in 2 mL aliquots by raising the imidazole concentration to 250 mM and subsequently to 500 mM in the previous buffer. The fractions were combined and the buffer was exchanged to the recommended IDE buffer (R&D) using spin columns with 100 KDa molecular weight cut off membranes (Millipore). Protein yields were typically ˜10 μg/L, and >90% purity based on gel electrophoresis analysis (Coomassie stained).

hIDE A198T = biological target: T2, hIDE A198T (Homo sapiens, UniProt P14735, A198T); experiment: Small molecule-enzyme mutant complementation study; assay type: biochemical; settings: A198T vs hIDE WT, batch 2
T2 construct: The reported N-His6-tagged human IDE42-1019 construct; made in house; host or cells: E. coli Rosetta 2 (DE3) pLysS
T2 sequence (P14735 42-1019 A198T): as the sequence (P14735 42-1019) above, with A157T counted along it
Description: as §1, §2, §3, §4, §5

hIDE W199F = biological target: T3, hIDE W199F (Homo sapiens, UniProt P14735, W199F); experiment: Small molecule-enzyme mutant complementation study; assay type: biochemical; settings: W199F vs hIDE WT, batch 2
T3 construct: The reported N-His6-tagged human IDE42-1019 construct; made in house; host or cells: E. coli Rosetta 2 (DE3) pLysS
T3 sequence (P14735 42-1019 W199F): as the sequence (P14735 42-1019) above, with W158F counted along it
Description: as §1, §2, §3, §4, §5

hIDE I310R = biological target: T4, hIDE I310R (Homo sapiens, UniProt P14735, I310R); experiment: Small molecule-enzyme mutant complementation study; assay type: biochemical; settings: I310R vs hIDE WT, batch 2
T4 construct: The reported N-His6-tagged human IDE42-1019 construct; made in house; host or cells: E. coli Rosetta 2 (DE3) pLysS
T4 sequence (P14735 42-1019 I310R): as the sequence (P14735 42-1019) above, with I269R counted along it
Description: as §1, §2, §3, §4, §5

hIDE F202L = biological target: T5, hIDE F202L (Homo sapiens, UniProt P14735, F202L); experiment: Small molecule-enzyme mutant complementation study; assay type: biochemical; settings: F202L vs hIDE WT, batch 1
T5 construct: The reported N-His6-tagged human IDE42-1019 construct; made in house; host or cells: E. coli Rosetta 2 (DE3) pLysS
T5 sequence (P14735 42-1019 F202L): as the sequence (P14735 42-1019) above, with F161L counted along it
Description: as §1, §2, §3, §4, §5

hIDE K364A = biological target: T6, hIDE K364A (Homo sapiens, UniProt P14735, K364A); experiment: Small molecule-enzyme mutant complementation study; assay type: biochemical; settings: K364A vs hIDE WT, batch 2
T6 construct: The reported N-His6-tagged human IDE42-1019 construct was introduced in the expression plasmid pTrcHis-A; made in house; host or cells: E. coli Rosetta 2 (DE3) pLysS
T6 sequence (P14735 42-1019 K364A): as the sequence (P14735 42-1019) above, with K323A counted along it
Description: as §1, §2, §3, §4, §5

hIDE F202R = biological target: T7, hIDE F202R (Homo sapiens, UniProt P14735, F202R); experiment: Small molecule-enzyme mutant complementation study; assay type: biochemical; settings: F202R vs hIDE WT, batch 2
T7 construct: The reported N-His6-tagged human IDE42-1019 construct; made in house; host or cells: E. coli Rosetta 2 (DE3) pLysS
T7 sequence (P14735 42-1019 F202R): as the sequence (P14735 42-1019) above, with F161R counted along it
Description: as §1, §2, §3, §4, §5

IDE [1] = biological target: IDE (Homo sapiens, UniProt P14735); experiment: Protease assay with fluorogenic peptide substrate Mca-[…](Dnp)-OH (IDE species not given); assay type: biochemical; parameters: The proteases IDE42-1019, recombinant human IDE42-1019 (R&D Systems); settings: heavy-labeled vs 6bK
IDE (Homo sapiens, UniProt P14735), sequence (P14735 42-1019): as the sequence (P14735 42-1019) above
Description: All data points and error bars represent mean±SEM. Significance tests were performed using two-tail Student's t-test, and significance levels shown in the figures are p<0.05 (*) or p<0.01 (**) versus the vehicle-only control group. The in vitro selection of the DNA-templated macrocycle libraryl^16,17 used 20 μg His6-tagged mouse IDE immobilized on cobalt magnetic beads (Dynabeads, Invitrogen). IDE proteolytic activity was assayed with fluorogenic peptide Mca-[…](Dnp)-OH (R&D). IDE inhibition was confirmed using an anti-insulin antibody time-resolved FRET assay (Cysbio), and using an LCMS assay for CGRP cleavage fragments CGRP1-17 and CGRP18-37 in plasma^18. […] Protease assays with fluorogenic peptide substrates. […] (R&D). All assay data points were obtained in duplicate.

IDE [2] = settings: cited from earlier work; for KM / Km / kcat: IDE substrate; for Degradation: degradation kinetics compared to insulin
IDE [3] = settings: inhibition of insulin degradation, cited from earlier work
IDE [4] = experiment: Literature survey of IDE substrates, in vitro degradation kinetics; assay type: biochemical; settings: KM estimated based on IC50 for inhibition of insulin degradation

| Compound | Degradation (IDE [2]) | Km (IDE [2]) | kcat (IDE [2]) | also measured |
| --- | --- | --- | --- | --- |
| CC(C)(C)c1ccc(CC2NC(=O)C(CC3CCCCC3)NC(=O)C(CCC(N)=O)NC(=O)C=CC(=O)NC(C(N)=O)CCCCNC2=O)cc1 (centres unmarked) [Compound 9] | – | – | – | IC50 shift (hIDE WT; batch 1 (reference)): 1.0 fold |
| CC(C)CC1NC(=O)C(CCC(N)=O)NC(=O)C=CC(=O)NC(C(N)=O)CCCCNC(=O)C(Cc2ccc(C(=O)c3ccccc3)cc2)NC1=O (centres unmarked) [Compound 13] | – | – | – | IC50 shift (hIDE A198T): 13.6 fold; IC50 shift (hIDE W199F): 3.2 fold; IC50 shift (hIDE I310R): 0.7 fold; IC50 shift (hIDE F202L): 2.3 fold; IC50 shift (hIDE K364A): 10.0 fold; IC50 shift (hIDE F202R): 4.1 fold; IC50 shift (hIDE WT; batch 1 (reference)): 1.0 fold; IC50 shift (hIDE WT; batch 2 (reference)): 1.0 fold; IC50 shift (hIDE WT; batch 3 (reference)): 1.0 fold |
| NC(=O)C1CCCCNC(=O)C(Cc2ccc(C(=O)c3ccccc3)cc2)NC(=O)C(CC2CCCCC2)N[13C](=O)[13CH]([13CH2][13CH2][13CH2][13CH2][15NH2])[15NH]C(=O)C=CC(=O)N1 (centres unmarked) [heavy 6bK] | – | – | – | IC50 compared with 6bK (IDE [1]): identical |
| B-type natriuretic peptide [B-type NP (BNP)] | Slow | – | – | KM (IDE [2]): weak; IC50 (IDE [3]; read-out: IC50): > 1000 nM |
| amylin (KCNTATCATQRLANFLVHSSNNFGAILSSTNVGSNTY; not fully specified (C-terminus, bridges); cysteine pairing not given here; UniProt P10997 34-70, looked up) [IDE substrate in vitro] | Medium | ~0.3 µM | – | IC50 (IDE [3]; read-out: IC50): 160 nM; Km (IDE [4]): 0.3 µM |
| amyloid-β peptide(40/42) [Aβ (40, 42)] | Fast | 1.23 µM | 0.867 s⁻¹ | – |
| atrial natriuretic peptide [atrial NP (ANP)] | Fast | 0.06 µM | – | – |
| bradykinin (RPPGFSPFR; Bradykinin; UniProt P01042 381-389, looked up) [IDE substrate in vitro] | Slow | 4.2 µM | – | – |
| dynorphin A (1-8) (YGGFLRRI; Dynorphin A(1-8); UniProt P01213 207-214, looked up) [IDE substrate in vitro] | – | 63.5 µM | 0.011 s⁻¹ | – |
| dynorphin A (1-9) | – | 60.5 µM | 0.0055 s⁻¹ | – |
| dynorphin A (1-10) | – | 39.4 µM | 0.0623 s⁻¹ | – |
| dynorphin A (1-13) (YGGFLRRIRPKLK; Dynorphin A(1-13); UniProt P01213 207-219, looked up) [IDE substrate in vitro] | – | 40.6 µM | 0.0623 s⁻¹ | – |
| dynorphin A (1-17) | – | 37.4 µM | 0.307 s⁻¹ | – |
| dynorphin B (1-9) (YGGFLRRQF; Rimorphin; UniProt P01213 226-234, looked up, fragment) [IDE substrate in vitro] | – | 26.8 µM | 0.172 s⁻¹ | – |
| dynorphin B (1-13) | – | 18.3 µM | 0.252 s⁻¹ | – |
| glucagon | Slow | 3.5 µM and 3.46 µM | 0.633 s⁻¹ and 0.642 s⁻¹ | IC50 (IDE [3]): weak |
| growth hormone releasing factor (1-29) | Slow | 11.9 µM | 0.39 s⁻¹ | – |
| insulin | Fast | < 0.03 µM | 0.0253 s⁻¹ | – |
| insulin-like growth factor-1 [IGF-1] | Slow | – | – | KM (IDE [2]): Weak |
| insulin-like growth factor-2 [IGF-2] | Fast | – | – | IC50 (IDE [3]; read-out: IC50): 60 nM; Km (IDE [4]): 0.1 µM |
| kallidin | Slow | 7.3 µM | – | – |
| pancreastatin (1-49) (SEALAVDGAGKPGAEEAQDPEGKGEQEHSQQKEEEEEMAVVPQGLFRGG; Pancreastatin; UniProt P10645 272-320, looked up, fragment) [IDE substrate in vitro] | Slow | 41.7 µM | 0.177 s⁻¹ | – |
| relaxin | Fast | – | – | IC50 (IDE [3]; read-out: IC50): 54 nM; Km (IDE [4]): 0.11 µM |
| relaxin-3 | Fast | – | – | IC50 (IDE [3]; read-out: IC50): 182 nM; Km (IDE [4]): 0.36 µM |
| somatostatin-14 | Slow | 7.5 µM | 0.38 s⁻¹ | – |
| transforming growth factor-alpha [TGF-α] | Fast | – | – | IC50 (IDE [3]; read-out: IC50): 80 nM; Km (IDE [4]): 0.15 µM |
| β-endorphin (1-31) | Slow | 13 µM | 0.35 s⁻¹ | – |

Source: US20160282364A1, “ASSAY FOR INSULIN-DEGRADING ENZYME (IDE) INHIBITORS” (PRESIDENT AND FELLOWS OF HARVARD COLLEGE, priority 2013, published 2016)
